According to patent US4877779A, “2-aminomethylalkynylalkyl-1,3-dithiane derivatives” (priority 1988, dated 1989):
Counter-ions that a name gives are not always drawn. Like-named read-outs stand apart in the source and are kept apart here.

Columns and labels:
[1] = target: T1, calcium channel (guinea-pig isolated ileal longitudinal smooth muscle) (Cavia porcellus, UniProt O35505); assay: Calcium Channel Antagonist Activity in Guinea-Pig Isolated Ileal Smooth Muscle; format: cell-based
T1 construct: The longitudinal smooth muscle is carefully separated from the underlying circular muscle layer; from tissue; host or cells: guinea-pig ileal longitudinal smooth muscle
T1 sequence (O35505 whole entry): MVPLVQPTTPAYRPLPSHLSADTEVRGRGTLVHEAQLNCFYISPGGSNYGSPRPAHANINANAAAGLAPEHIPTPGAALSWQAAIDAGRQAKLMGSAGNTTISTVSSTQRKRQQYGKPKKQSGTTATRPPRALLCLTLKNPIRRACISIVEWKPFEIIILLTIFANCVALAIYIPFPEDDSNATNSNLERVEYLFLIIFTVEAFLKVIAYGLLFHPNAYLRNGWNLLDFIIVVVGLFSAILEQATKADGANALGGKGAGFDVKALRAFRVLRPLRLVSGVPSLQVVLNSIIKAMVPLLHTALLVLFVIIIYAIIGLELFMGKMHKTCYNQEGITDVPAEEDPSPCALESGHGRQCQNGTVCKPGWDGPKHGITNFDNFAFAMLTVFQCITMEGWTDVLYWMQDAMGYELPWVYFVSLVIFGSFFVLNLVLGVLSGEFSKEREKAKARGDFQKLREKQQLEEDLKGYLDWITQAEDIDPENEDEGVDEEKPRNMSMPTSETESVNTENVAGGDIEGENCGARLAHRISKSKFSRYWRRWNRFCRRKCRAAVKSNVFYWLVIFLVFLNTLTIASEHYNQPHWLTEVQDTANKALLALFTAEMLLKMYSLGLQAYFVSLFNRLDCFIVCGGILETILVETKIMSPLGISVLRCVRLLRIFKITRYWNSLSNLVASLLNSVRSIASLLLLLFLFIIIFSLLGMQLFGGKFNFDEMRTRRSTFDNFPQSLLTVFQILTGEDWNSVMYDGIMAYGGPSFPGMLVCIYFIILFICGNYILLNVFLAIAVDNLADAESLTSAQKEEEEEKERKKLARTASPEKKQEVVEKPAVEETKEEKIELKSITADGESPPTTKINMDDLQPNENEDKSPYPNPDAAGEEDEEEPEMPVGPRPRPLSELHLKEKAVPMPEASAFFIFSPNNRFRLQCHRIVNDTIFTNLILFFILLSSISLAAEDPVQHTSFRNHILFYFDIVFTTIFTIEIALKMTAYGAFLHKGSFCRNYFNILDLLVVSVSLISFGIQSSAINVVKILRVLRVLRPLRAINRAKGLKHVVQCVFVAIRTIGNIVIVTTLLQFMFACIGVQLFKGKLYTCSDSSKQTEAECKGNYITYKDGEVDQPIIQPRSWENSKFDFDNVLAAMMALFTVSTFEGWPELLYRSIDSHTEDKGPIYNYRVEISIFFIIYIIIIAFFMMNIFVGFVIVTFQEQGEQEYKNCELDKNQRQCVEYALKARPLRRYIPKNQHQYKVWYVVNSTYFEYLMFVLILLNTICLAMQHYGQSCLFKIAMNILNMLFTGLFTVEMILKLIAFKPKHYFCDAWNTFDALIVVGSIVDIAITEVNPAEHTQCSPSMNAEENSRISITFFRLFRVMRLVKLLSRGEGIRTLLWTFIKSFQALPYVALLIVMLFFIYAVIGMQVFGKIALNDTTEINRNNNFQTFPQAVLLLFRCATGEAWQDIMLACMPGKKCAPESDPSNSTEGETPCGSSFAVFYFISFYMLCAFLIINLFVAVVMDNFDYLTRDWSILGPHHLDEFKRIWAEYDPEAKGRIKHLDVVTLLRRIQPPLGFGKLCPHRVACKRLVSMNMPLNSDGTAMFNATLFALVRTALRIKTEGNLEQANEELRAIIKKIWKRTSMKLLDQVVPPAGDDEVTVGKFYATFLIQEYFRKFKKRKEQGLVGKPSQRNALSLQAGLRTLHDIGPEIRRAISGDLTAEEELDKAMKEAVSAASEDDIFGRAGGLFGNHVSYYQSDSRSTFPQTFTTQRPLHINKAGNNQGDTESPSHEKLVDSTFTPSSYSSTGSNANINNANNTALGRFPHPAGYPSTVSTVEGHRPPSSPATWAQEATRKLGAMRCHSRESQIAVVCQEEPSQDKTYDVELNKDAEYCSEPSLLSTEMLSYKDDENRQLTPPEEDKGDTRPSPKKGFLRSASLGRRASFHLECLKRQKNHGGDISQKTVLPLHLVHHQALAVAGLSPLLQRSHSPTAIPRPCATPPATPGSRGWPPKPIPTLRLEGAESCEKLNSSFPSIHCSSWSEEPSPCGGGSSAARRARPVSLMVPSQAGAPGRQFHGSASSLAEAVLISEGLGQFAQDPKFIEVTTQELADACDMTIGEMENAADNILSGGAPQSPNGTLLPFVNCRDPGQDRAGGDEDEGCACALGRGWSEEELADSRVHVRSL
Description: Calcium Channel Antagonist Activity in Guinea-Pig Isolated Ileal Smooth Muscle.
Male albino guinea-pigs are sacrificed by stunning and exsanguination. The abdominal cavity is opened and the small intestine is removed, with about 10 cm of the terminal ileum being discarded. The tissue is placed in a dish containing Tyrode's solution (composition, mM: […]; KCl 2.68; NaHCO3 11.90; NaH2 PO4 0.36; MgCl2 0.98; CaCl2 1.77; dextrose 5.55), and cut into three to four segments. A glass rod (6 mm diameter) is carefully inserted into the lumen of each segment, and excess connective tissue or fat is removed. The longitudinal smooth muscle is carefully separated from the underlying circular muscle layer by gently stroking a moist cotton swab on a tangent to shallow, longitudinal incisions made parallel to the mesenteric attachment. Using gentle traction, and taking care to keep the segment moist at all times, the preparation is stripped from the remaining length of the ileal segment (Paton & Zar, J. Physiol. 194, 13; 1968).
Each preparation is suspended in a 10 mL jacketed glass tissue bath containing Tyrode's solution maintained at 37° C. and gassed with 5% CO2 in O2. The preparation is attached by silk thread to a force-displacement transducer. […] The initial resting tension is adjusted to 0.5 g and the preparation equilibrated for 55 minutes prior to experimentation. At the end of this period, the bathing solution is replaced with Ca^2+ -free Tyrode's solution. This solution is prepared by omitting CaCl2. The preparation is washed four times in Ca^2+ -free Tyrode 's to remove any Ca^2+ remaining in the bath, and allowed to equilibrate for a further 20 minutes.
Concentration-response curves to CaCl2 are obtained using the following procedure. Preparations are exposed to a depolarizing concentration of KCl (80 mM) for 6 minutes. At the end of this period CaCl2 is added to the bath cumulatively in the concentration range 0.2-8.0 mM. Successive additions of each Ca^2+ concentration are carried out only when the previous response has reached a plateau. When the maximum response has been attained the bath is again washed (five times) with Ca^2+ -free buffer, and the preparation re-equilibrated for approximately 15 minutes. A second Ca^2+ concentration-response curve is then obtained in the same manner. This second curve serves as control for that tissue.
Further curves are obtained in the presence of increasing concentrations of the test drugs. Where appropriate, the test drug is added to the bath immediately following addition of KCl, and 6 minutes later the concentration-response curve to Ca^2+ is obtained. Each test preparation is exposed to three different concentrations of a test drug.
For each ileal preparation, the control EC50 for Ca^2+ (the concentration producing 50% of the maximum response) is determined from the control concentration-response curve. Calcium blocking activity is defined as a Kb value (the concentration producing a two-fold dextral shift in the control curve), calculated from EC50 ratios in the absence and presence of test drugs.

[2] = system: Serotonin-Induced Diarrhea in Mice; assay: Inhibition of Serotonin-Induced Diarrhea in Mice; format: in vivo, Male CF1 mice; details: Mus musculus, ip, 0.5 h, read-out: ED50 (95% confidence limits)
Experimental: Inhibition of Serotonin-Induced Diarrhea in Mice.
. The mice were weighed and an average weight was used to calculate the amount of drug to be administered. Drugs were prepared in isotonic saline or an appropriate vehicle at varying concentrations and were administered intraperitoneally. Control animals were given vehicles without any test drug. Serotonin was given intraperitoneally (i.p.) in all cases 30 minutes after i.p. administration of test drug. Mice were placed in individual cages containing racks and paper liners with free access to water. Mice were observed after 30 minutes, 60 minutes and 180 minutes and graded for presence or absence of diarrhea. The grading system consisted of positive (+), negative (-) and (±) based on consistency and liquid staining. The ED50 (effective dose in 50% of population) was calculated for each test drug using the method of Litchfield-Wilcoxin. […]

[3] = system: substance P-induced Cl- ion secretion by guinea-pig isolated ileal mucosa; format: cell-based; details: antagonist 5 μM serosal and mucosal, 5 minutes prior to substance P (1 μM)
Description: Inhibition of Ileal Secretion.
This technique involves the measurement of Cl- ion secretion by guinea-pig isolated ileal mucosa, and provides a method for assessing the effect of drugs on intestinal electrolyte and water secretion. […] Cl- ion secretion in vitro, which is Ca^2+ -dependent, is quantitated as changes in electrical current (Isc) under short-circuited conditions.
Male Hartley guinea-pigs weighing 200-400 g were maintained on a standard laboratory diet with free access to food and water prior to sacrifice by decapitation. An approximately 15 cm segment of proximal ileum was removed and stripped of its underlying longitudinal muscle by blunt dissection. Four adjacent tissues were each mounted as flat sheets between Ussing chambers (two lucite half-chambers, exposed area=0.64 cm^2) and bathed on both sides by a physiological salt solution circulated by gas lift, and maintained at a pH of 7.4.
Electrical measurements were monitored with an automatic voltage clamp (World Precision Instruments, model DVC-1000). Two calomel electrodes with 4% agar Krebs Bicarbonate Ringer bridges were used to measure the transepithelial potential difference (PD) across the isolated mucosa. […] The Isc was recorded on a Gould chart recorder. […]

[4] = Kb = concentration producing a two-fold dextral shift in the control CaCl2 concentration-response curve, KCl (80 mM) depolarized ileal smooth muscle, read-out: Calcium antagonist Kb
[5] = i.p., serotonin i.p. 30 minutes after test drug, mice, Litchfield-Wilcoxin

| Compound | percent inhibition of substance P-induced increase in Isc [3] | Kb [1, 4] | ED50 [2, 5] | also measured |
| --- | --- | --- | --- | --- |
| CCN(CC)CC#CCCC1(C2(O)c3ccccc3Oc3ccccc32)SCCCS1 [2-(5-Diethylaminopent-3-ynyl)-2-(9-hydroxy-9H-xanthen-9-yl)-1,3-dithiane] | 55.2% |  |  | Kb [1]: 156 ± 30 nM; ED50 [2]: 20.7 mg/kg |
| CN(CC#CCCC(O)(c1ccccc1)C1SCCCS1)CCc1ccccc1 (stereo not drawn) [2-[6-(2-phenylethyl)methylamino-1-hydroxy-1-phenyl-hex-4-ynyl]-1,3-dithiane oxalate hemihydrate] |  | 2250 ± 530 nM |  |  |
| COc1ccc(CCN(C)CC#CCCC(O[Si](C)(C)C)(c2ccccc2)C2SCCCS2)cc1OC (stereo not drawn) [2-[6-[2-(3,4-Dimethoxyphenyl)ethyl]methylamino-1-phenyl-1-trimethylsilyloxyhex-4-ynyl]-1,3-dithiane] |  | 570 ± 30 nM |  |  |
| COc1ccc(CCN(C)CC#CCCC(O)(c2ccccc2)C2SCCCS2)cc1OC (stereo not drawn) [2[6-[2-(3,4-dimethoxyphenyl)ethyl]methylamino-1-hydroxy-1-phenylhex-4-ynyl]-1,3-dithiane] |  | 1230 ± 530 nM |  |  |
| CN(C)C(=O)C(CCN1CCC(O)(c2ccc(Cl)cc2)CC1)(c1ccccc1)c1ccccc1 [loperamide, reference compound] | 36.1% |  | 0.16 mg/kg |  |
| COc1ccc(CCN(C)CCCC(C#N)(c2ccc(OC)c(OC)c2)C(C)C)cc1OC (stereo not drawn) [verapamil] |  |  | 13.3 mg/kg |  |
